Holding throughout (assay): inhibition of tumour cell growth, NCI panel, 48 h
The test system of assay [1] is OVCAR-3 ovarian.
Assay [2] concerns HL-60(TB) leukemia.
The test system of assay [3] is NCI-H460 lung.
The test system of assay [4] is ACHN renal.
The test system of assay [5] is PC-3 prostate.
Assay [6] concerns 786-0 renal.
The test system of assay [7] is SN12C renal.
Assay [8] deals with NCI-H23 lung.
Assay [9] relates to NCI-H226 lung.
The test system of assay [10] is MDA-MB-231 breast.

Values joined by “and” are separate entries in the source; they are usually repeats but may differ in a detail not shown here. Equal values may be shown once.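 A five-concentration, 48-hour dose response in 96-well plates underlies each endpoint, interpolated linearly between surrounding concentrations. GI50 is the concentration that inhibits growth by half. TGI is the concentration that stops growth completely.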

The results in this text go back to PubChem BioAssay (NCI).

For the compound `CSc1nc(SC)c2c(CO)c(Br)n(Cc3ccccc3)c2n1`, the TGI in assay [1] is greater than 100 µM; in assay [2] it was greater than 100 µM; in [3], 30.5 µM; in assay [4], 44.7 µM; in [5], greater than 100 µM; in [6], 37.6 µM. Moreover, the TGI in assay [7] is greater than 100 µM; in assay [8] it was greater than 100 µM; in assay [9], 39.3 µM; in [10] it was 36.5 µM.

Regarding `Cc1ccc(O)c(NC(=O)c2ccc(CNc3ccnc(C(F)(F)F)c3)cc2)c1`, the GI50 in assay [1] was 11.3 µM; in [2], 1.21 µM; in assay [3] it was 3.7 µM; in assay [4] it was 3.66 µM; in [5], 9.5 µM; in assay [6] it was 5.2 µM. Also, the GI50 in assay [7] is 4.23 µM; in assay [8] it was 10.6 µM; in [9] it was 4.52 µM; in assay [10], 3.36 µM. Moreover, the TGI in [1] was 28.2 µM; in assay [2], 14.8 µM; in [3] it was 21.9 µM; in [4] it was greater than 100 µM; in assay [5], 38 µM; in [6], 47.7 µM. In addition, the TGI in assay [7] is greater than 100 µM; in [8], 53.3 µM; in assay [9], 38.8 µM; in assay [10], 47.2 µM.

Consider `CC(C(O)c1ccccc1)C(O)(C(F)(F)F)C(F)(F)F` (stereo not given), for which the TGI in [1], in assay [2], in assay [3], in assay [4], in [5] and in assay [6] was greater than 100 µM throughout. Further, the TGI in assay [7], in assay [8], in assay [9] and in [10] was greater than 100 µM each time.

On to `Cn1cc(-c2ccc(-c3ccc(C4=NC5(CC5)C(=O)N4C[C@@H]4CCN(C(=O)C5CC5)C4)cc3)cc2)cn1`, for which the GI50 in assay [1] is 11.5 µM; in assay [2] it was 0.0615 µM; in assay [3], 1.22 µM; in assay [4], 14.3 µM; in [5], 22.8 µM; in [6], 10.5 µM. The GI50 in assay [7] is 17.5 µM; in assay [8], 12.7 µM; in [9], 16 µM; in [10], 11.2 µM. Besides, the TGI was 28.1 µM in [1]; 25.9 µM in assay [2]; 18 µM in [3]; greater than 100 µM in [4]; greater than 100 µM in assay [5]; greater than 100 µM in assay [6]. Further, the TGI came out at 77.3 µM in [7], 41.8 µM in assay [8], 51.2 µM in assay [9] and 37.3 µM in assay [10].

`COc1cc(Nc2ncc(F)c(Nc3ccc4c(n3)N(COP(=O)(O)O)C(=O)C(C)(C)O4)n2)cc(OC)c1OC`: the GI50 was 2.66 µM and 2.71 µM in assay [1]; 4.19 µM and 6.05 µM in assay [2]; 3.59 µM and 3.45 µM in assay [3]; 1.12 µM and 1.21 µM in assay [4]; 2.1 µM and 4.17 µM in [5]; 1.32 µM and 0.858 µM in assay [6]. Further, the GI50 in assay [7] was 1.01 µM and 1.05 µM; in assay [8] it was 2.51 µM and 2.57 µM; in [9] it was 0.876 µM and 0.38 µM; in assay [10] it was 1.67 µM and 1.35 µM. Further, the TGI in assay [1] was 33.6 µM and > 10 µM; in assay [2], 32.6 µM and > 10 µM; in [3], greater than 100 µM; in assay [4], 12.2 µM and > 10 µM; in assay [5], 22.6 µM and > 10 µM; in assay [6], 6.53 µM and 2.86 µM. The TGI was 16.6 µM and > 10 µM in [7]; 22.7 µM and > 10 µM in [8]; 4.78 µM and 2.32 µM in assay [9]; 5.07 µM and 7.69 µM in assay [10].

As for `COc1cc(C2CC(c3ccc(Nc4ccnc5cc(Cl)ccc45)cc3)=NN2c2ccc(Cl)cc2)cc(OC)c1OC` (stereo not given), the GI50 is 1.87 µM in assay [1]; 4.68 µM in [2]; 3.16 µM in [3]; 1.85 µM in [4]; 1.47 µM in [5]; 2.88 µM in assay [6]. In addition, the GI50 is 7.56 µM in [7], 8.82 µM in [8], 4.77 µM in assay [9] and 1.93 µM in assay [10]. For the same compound, the TGI in [1], in assay [2], in [3], in assay [4], in [5] and in assay [6] was greater than 100 µM each time. For the same compound, the TGI in [7] was greater than 100 µM; in assay [8], greater than 100 µM; in [9], greater than 100 µM; in assay [10], 27.1 µM.

Turning to `C#CCOc1cccc(Nc2ncnc3cc(NC(=O)CCl)ccc23)c1`, the GI50 in assay [1] was 1.84 µM; in [2], 3.29 µM; in assay [3], 3.64 µM; in [4], 4.9 µM; in [5], 2.57 µM; in assay [6], 4.68 µM. For the same compound, the GI50 in [7] is 4.1 µM; in assay [8], 3.4 µM; in assay [9], 10.7 µM; in [10] it was 5.28 µM. Also, the TGI in assay [1] is 4.35 µM; in assay [2], 12.5 µM; in assay [3], 12.1 µM; in [4] it was 18 µM; in assay [5] it was 12 µM; in assay [6] it was 18.5 µM. For the same compound, the TGI worked out at 17.3 µM in assay [7], 16.7 µM in assay [8], 32.7 µM in [9] and 19.9 µM in assay [10].

`O=c1c(O)c(-c2cc(O)c(O)c(O)c2)oc2cc(O)cc(O)c12`: the TGI in assay [1] is 89.7 µM; in assay [2] it was greater than 100 µM; in assay [3], 39.1 µM; in assay [4] it was greater than 100 µM; in assay [5], greater than 100 µM; in assay [6] it was 44.8 µM. Also, the TGI in assay [7] was […]; in [8], 35.4 µM; in assay [9] it was 57.1 µM; in assay [10], 35.8 µM.

As for `CCNC(=O)O[C@H]1CN[C@H](C#Cc2cc3ncnc(Nc4ccc(OCc5cccc(F)c5)c(Cl)c4)c3s2)C1`, the GI50 is 3.77 µM in assay [1]; 5.71 µM in [2]; 6.84 µM in assay [3]; 1.99 µM in assay [4]; 5.93 µM in [5]; 5.69 µM in assay [6]. Further, the GI50 was 5.71 µM in assay [7], 9.13 µM in assay [8], 7.09 µM in assay [9] and 4.35 µM in assay [10]. The TGI in [1] was 16.7 µM; in assay [2], greater than 19.4 µM; in [3], greater than 25 µM; in assay [4], greater than 25 µM; in assay [5] it was greater than 25 µM; in assay [6], greater than 16.6 µM. In addition, the TGI in assay [7] was greater than 25 µM; in [8] it was greater than 25 µM; in assay [9], greater than 21.1 µM; in [10] it was greater than 16 µM.

`CN(Cc1cc(C(C)(C)C)cc(Br)c1O)Cc1cc(C(C)(C)C)cc(Br)c1O`: the TGI in assay [1] is 6.73 µM; in [2], 7.71 µM; in [3], 4.72 µM; in assay [4] it was 9.01 µM; in assay [5] it was 9.32 µM; in assay [6], 13.8 µM. In addition, the TGI in assay [7] stood at 15.2 µM; in assay [8] it was 9.88 µM; in assay [9], 13.3 µM; in [10], 6.91 µM.

Take `CN(C)CCNC(=O)c1ccc(NC(=O)c2nc([N+](=O)[O-])cn2C)cc1`: the TGI in assay [1], in assay [2], in [3], in assay [4], in assay [5] and in assay [6] was greater than 100 µM in each case. The TGI in assay [7], in [8], in assay [9] and in assay [10] was greater than 100 µM each time.

Take `O=C(OC[C@H]1O[C@H](OC(=O)c2cc(O)c(O)c(OC(=O)c3cc(O)c(O)c(O)c3)c2)[C@H](OC(=O)c2cc(O)c(O)c(OC(=O)c3cc(O)c(O)c(O)c3)c2)[C@@H](OC(=O)c2cc(O)c(O)c(OC(=O)c3cc(O)c(O)c(O)c3)c2)[C@@H]1OC(=O)c1cc(O)c(O)c(OC(=O)c2cc(O)c(O)c(O)c2)c1)c1cc(O)c(O)c(OC(=O)c2cc(O)c(O)c(O)c2)c1`: the GI50 is 4.68 µM in [1]; 7.53 µM in assay [2]; 1.09 µM in assay [3]; 6.42 µM in assay [4]; 2.33 µM in assay [5]; 4.89 µM in assay [6]. Moreover, the GI50 in assay [7] was 4.2 µM; in [8], 1.56 µM; in assay [9], 3.23 µM; in assay [10] it was 0.898 µM. For the same compound, the TGI was 22.1 µM in [1]; 23.5 µM in [2]; greater than 25 µM in assay [3]; greater than 25 µM in assay [4]; greater than 25 µM in [5]; 20.2 µM in [6]. In addition, the TGI in [7] is greater than 25 µM; in assay [8] it was greater than 25 µM; in [9] it was 18 µM; in [10], greater than 25 µM.
